Test [1] has as its system hind paws of male rats. Put plainly: Anti-inflammatory effect: acute carragheenin edema method. Format: in vivo. The following applies: Rattus norvegicus, read-out: Anti-inf.: edema inhibition rate. As for the experimental part: The edema was induced by subcutaneous injection of 1% carragheenin suspension in saline to the hind paws of male rats weighting 150 to 180 g. Each sample was orally given at the dosage of 100 mg/kg just before the inoculation of carragheenin.

Test [2] has as its system platelet. As to the kind of experiment: Blood platelet aggregation inhibiting effect (collagen-induced). Format: cell-based, rabbits. The following applies: Oryctolagus cuniculus, Platelet; 10^-4 mole, collagen inducer, rabbit PRP; read-out: Blood platelet agg. inh.: percentage inhibition of platelet aggregation. An excerpt:
Male rabbits (Japan original white strain 3.3 to 3.6 kg) were anesthetized with Thiopental sodium and blood was sampled from the carotid artery.

In test [3] the test system is thrombus. As to the kind of experiment: Inhibiting effect on thrombosis (by-pass between left juglar vein and right carotid artery, silk thread). Format: in vivo, SD type male rates. Conditions: Rattus norvegicus; 100 mg/kg oral, 5 hours before first blood circulation, rats; read-out: Thrombosis inh.: thrombosis inhibition rate. A digest of the protocol:
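Arteriovenous shunt with silk thread and heparin saline, run as three successive 15-min circulations, with thrombus wet weight measured on the thread each time. Compound given orally in carboxymethyl cellulose suspension at 100 mg/kg 5 h before the first circulation. Inhibition rate derived against control circulations.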

Test [4] has as its system male mice. Put plainly: Analgesic effect: painful stretchings following intraperitoneal 0.7% acetic acid. The following applies: Mus musculus, po, read-out: Analgesic: percentage diminition of times of painful stretching.
Method: Each sample was orally administered in the dosage of 100 mg/kg before injection of acetic acid.
The mark [5] stands for this setting: 100 mg/kg oral, carragheenin edema, male rats (Table 2).

Like-named read-outs stand apart in the source and are kept apart here.

The record followed here is US4145444A, “Anti-inflammatory agent of benzoyl derivative” (priority 1977, dated 1979).

What is called inhibition is the share of the control response that was lost under treatment.

For the compound `CCCCc1ccc(C(=O)c2ccc(CCC)cc2)cc1` [compound 98], the values for the inhibition in vivo at 100 mg/kg in test [1] (setting [5]), in test [3] and in test [4] were 31.9%, 35.4% and 16.4%, respectively. In addition, the inhibition at 100 µM in test [2] turned out to be 28.3%.

As for `CCc1ccc(C(=O)c2ccc(CC)cc2)cc1` [compound 106], the inhibition in vivo at 100 mg/kg in test [1] (setting [5]) was 26.4%; in test [3] it was 20.2%; in test [4], 7.3%. For the same compound, the inhibition at 100 µM in test [2] is 20.3%.

Consider `CCCCc1ccc(CCCC)c(C(=O)c2ccc(C)cc2)c1` [compound 17], for which the figures for the inhibition in vivo at 100 mg/kg in test [1] (setting [5]), in test [3] and in test [4] were 36.3%, 19.5% and 10.3%, respectively. Besides, the inhibition at 100 µM in test [2] was 17.3%.

Regarding `CCCc1ccc(C(=O)c2ccccc2)cc1` [compound 20], the inhibition in vivo at 100 mg/kg was 42.7% in test [1] (setting [5]), 4.1% in test [3] and 17.3% in test [4]. For the same compound, in test [2], the inhibition at 100 µM was 36.6%.

Take `CC(C)(C)c1ccc(C(=O)c2ccccc2)cc1` [compound 22]: the inhibition in vivo at 100 mg/kg in test [1] (setting [5]) stood at 36.4%; in test [3], 7.9%; in test [4], 8.2%. The inhibition at 100 µM in test [2] worked out at 9.5%.

With `CCCCCCCc1ccc(C(=O)c2ccc(C)cc2)cc1` [compound 85], the inhibition in vivo at 100 mg/kg in test [1] (po) amounted to 18.7%; in test [3], 16.2%; in test [4], 10.2%. In addition, in test [2], the inhibition at 100 µM worked out at 18.7%.

Take `Cc1ccc(C(=O)Cc2ccccc2)cc1` [compound 48]: the inhibition in vivo at 100 mg/kg in test [1] (setting [5]) was determined as 26%; in test [3] it was 18.3%; in test [4], 12.5%. For the same compound, the inhibition at 100 µM in test [2] is 20.5%.

For the compound `CCCc1ccc(C(=O)c2ccc(O)cc2)cc1` [compound 104], the inhibition in vivo at 100 mg/kg in test [1] (setting [5]) was determined as 27.4%; in test [3] it was 30.5%; in test [4] it was 13.2%. Moreover, the inhibition at 100 µM in test [2] turned out to be 25.3%.

As to `COc1ccc(C(=O)Cc2ccc(Cl)cc2)cc1` [compound 60], the inhibition in vivo at 100 mg/kg in test [1] (setting [5]) turned out to be 13.2%; in test [3], 12.3%; in test [4], 6.3%. Further, the inhibition at 100 µM in test [2] turned out to be 4%.

Regarding `CCCCCc1ccc(C(=O)c2ccc(OC)cc2)cc1` [compound 45], the inhibition in vivo at 100 mg/kg in test [1] (setting [5]) came out at 37.8%; in test [3], 30.8%; in test [4] it was 12.5%. Further, the inhibition at 100 µM in test [2] was 17.7%.

Regarding `CCCCCc1ccc(C(=O)c2ccc(CCCCC)cc2)cc1` [compound 111], the inhibition in vivo at 100 mg/kg in test [1] (setting [5]) worked out at 20.6%; in test [3] it was 17.3%; in test [4], 11.3%. In addition, the inhibition at 100 µM in test [2] is 10.3%.

Regarding `CCCCCCCCCCCc1ccc(C(=O)Cc2ccccc2)cc1` [compound 51], the inhibition in vivo at 100 mg/kg stood at 24.6% in test [1] (setting [5]), 13.5% in test [3] and 18.3% in test [4]. Besides, the inhibition at 100 µM in test [2] turned out to be 9.5%.

With `CCCCOc1ccc(C(=O)c2ccc(CCCC)cc2)cc1` [compound 95], the inhibition in vivo at 100 mg/kg amounted to 17.1% in test [1] (setting [5]), 32.3% in test [3] and 14.5% in test [4]. Moreover, the inhibition at 100 µM in test [2] was 30%.

In the case of `CCCc1ccc(C(=O)c2ccc(CCC)cc2)cc1` [compound 110], the inhibition in vivo at 100 mg/kg in test [1] (setting [5]) was determined as 17%; in test [3], 18.6%; in test [4] it was 10.5%. For the same compound, the inhibition at 100 µM in test [2] is 20.5%.

In the case of `CCCCOc1ccc(C(=O)c2c(C)cc(C)cc2C)cc1` [compound 94], the inhibition in vivo at 100 mg/kg in test [1] (setting [5]) was 26.6%; in test [3] it was 37.4%; in test [4] it was 15.8%. Moreover, the inhibition at 100 µM in test [2] was found to be 27.9%.

As to `CCCCCc1ccc(C(=O)c2ccccc2F)cc1` [compound 9], the inhibition in vivo at 100 mg/kg in test [1] (setting [5]) amounted to 74.6%; in test [3] it was 25.3%; in test [4], 15.3%. The inhibition at 100 µM in test [2] was 14.6%.

In the case of `CCCCCCc1ccc(C(=O)c2ccccc2)cc1` [compound 24], the inhibition in vivo at 100 mg/kg in test [1] (setting [5]) worked out at 37.6%; in test [3], 24.3%; in test [4], 47.7%. Moreover, the inhibition at 100 µM in test [2] was 10.5%.

Consider `CCCCCCCCCCCc1ccc(C(=O)c2ccccc2)cc1` [compound 71], for which the inhibition in vivo at 100 mg/kg amounted to 20% in test [1] (setting [5]), 11.4% in test [3] and 9.2% in test [4]. Moreover, the inhibition at 100 µM in test [2] is 19.5%.

Consider `CCCc1ccc(C(=O)c2ccc(Cl)cc2)cc1` [compound 63], for which the figures for the inhibition in vivo at 100 mg/kg in test [1] (setting [5]), in test [3] and in test [4] were 11.8%, 6.2% and 8.2%, respectively. Besides, in test [2], the inhibition at 100 µM stood at 15.6%.

`Cc1ccc(C(=O)c2c(C)cc(C)cc2C)cc1` [compound 86]: the inhibition in vivo at 100 mg/kg in test [1] (setting [5]) was 17.7%; in test [3] it was 35.6%; in test [4] it was 8.3%. Moreover, in test [2], the inhibition at 100 µM worked out at 28.3%.

As for `CCCCCc1ccc(C(=O)c2ccc(O)cc2)cc1` [compound 105], the results for the inhibition in vivo at 100 mg/kg in test [1] (setting [5]), in test [3] and in test [4] were 33.6%, 31.4% and 14.1%, respectively. Also, the inhibition at 100 µM in test [2] is 24.1%.

For the compound `CCCCc1ccc(C(=O)Cc2ccccc2)cc1` [compound 39], the figures for the inhibition in vivo at 100 mg/kg in test [1] (setting [5]), in test [3] and in test [4] were 35.9%, 15.9% and 23.1%, respectively. The inhibition at 100 µM in test [2] was 2.6%.

Consider `Cc1ccc(C(=O)c2ccccc2)c(C)c1` [compound 37], for which the inhibition in vivo at 100 mg/kg in test [1] (setting [5]) was determined as 39.6%; in test [3] it was 5.3%; in test [4] it was 9.8%. The inhibition at 100 µM in test [2] was found to be 17.4%.

On to `CCc1ccc(C(=O)c2ccccc2)cc1` [compound 66], for which the inhibition in vivo at 100 mg/kg in test [1] (setting [5]) is 34.4%; in test [3], 20.5%; in test [4], 15.7%. Further, the inhibition at 100 µM in test [2] is 20.7%.

As for `CCCCCCCCCCCCc1ccc(C(=O)c2ccccc2)cc1` [compound 69], the inhibition in vivo at 100 mg/kg was found to be 12% in test [1] (setting [5]), 12.7% in test [3] and 6.7% in test [4]. Moreover, the inhibition at 100 µM in test [2] amounted to 13.5%.

Turning to `COc1ccc(C(=O)Cc2ccccc2)cc1` [compound 57], the inhibition in vivo at 100 mg/kg in test [1] (setting [5]) amounted to 16.1%; in test [3], 6.5%; in test [4], 10.3%. In test [2], the inhibition at 100 µM amounted to 12.5%.

In the case of `CCCCCCCCCCc1ccc(C(=O)c2ccccc2)cc1` [compound 68], the inhibition in vivo at 100 mg/kg amounted to 17.6% in test [1] (setting [5]), 20.3% in test [3] and 5.8% in test [4]. For the same compound, in test [2], the inhibition at 100 µM stood at 16.5%.

Take `CCCCCCc1ccc(C(=O)c2ccc(C)cc2)cc1` [compound 36]: the inhibition in vivo at 100 mg/kg in test [1] (setting [5]) came to 34.8%; in test [3], 28.1%; in test [4] it was 13.7%. Also, the inhibition at 100 µM in test [2] amounted to 15.1%.

On to `Cc1ccc(C)c(C(=O)c2ccccc2)c1` [compound 38], for which the inhibition in vivo at 100 mg/kg is 37.5% in test [1] (setting [5]), 8.3% in test [3] and 18% in test [4]. For the same compound, the inhibition at 100 µM in test [2] came out at 20.9%.

On to `CCCCCCCc1ccc(C(=O)c2ccccc2)cc1` [compound 25], for which the inhibition in vivo at 100 mg/kg in test [1] (setting [5]) worked out at 40.8%; in test [3] it was 22.1%; in test [4], 48.6%. In addition, the inhibition at 100 µM in test [2] was 7.8%.

Take `CCCc1ccc(C(=O)c2ccccc2F)cc1` [compound 7]: the inhibition in vivo at 100 mg/kg in test [1] (setting [5]) was found to be 55.6%; in test [3], 24.6%; in test [4], 15%. The inhibition at 100 µM in test [2] worked out at 23%.

As for `CCc1cc(CC)c(C(=O)c2ccccc2)c(CC)c1` [compound 13], the inhibition in vivo at 100 mg/kg in test [1] (setting [5]) worked out at 38.9%; in test [3] it was 20.5%; in test [4] it was 15.8%. In addition, the inhibition at 100 µM in test [2] was determined as 14.3%.
